In PubChem BioAssay AID651569 (Sanford-Burnham Center for Chemical Genomics, 2012):
Activity calls are given as the source filed them. No rule for the calls is given here.

System: luminescent cytotoxicity (cell viability) counter-screen
Test: cytotoxicity of Gli-SUFU antagonist hits, dose response, cytotoxicity control for Gli-SUFU antagonist project, cell-based, luminescence, uHTS hits (AID 651569);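 also: compound exposure lasted overnight before the viability readout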

Row | SMILES | IC50
1 | Cc1ccc(NC(=O)COc2ccccc2C(N)=O)cc1S(=O)(=O)N1CCCCCC1 | 19.8 µM
2 | CCCN(CCC)CCNC(=O)c1cc2c(=O)n(C)c3ccccc3c2n1C | > 20 µM (inactive)
3 | CCOc1ccc(NS(=O)(=O)c2cccc(C(=O)N3CCN(C/C=C/c4ccccc4)CC3)c2)cc1 | > 20 µM (inactive)
4 | CC(=O)Nc1ccc(S(=O)(=O)N(Cc2ccccc2)C(C)C)cc1 | > 20 µM (inactive)
5 | O=C(C[C@@H]1C/C=C\C[C@@H](NC(=O)OCC2c3ccccc3-c3ccccc32)C(=O)OC[C@@H](Cc2ccccc2)NC1=O)NCCO | > 20 µM (inactive)
6 | C(#Cc1ccccc1)C[N+]1(CC#Cc2cccc3ccccc23)CCCC1 | > 20 µM (inactive)
7 | O=C(NCCc1cccc(Cl)c1)c1ccc(OC2CCN(Cc3ccccn3)CC2)cc1 | > 20 µM (inactive)
8 | CCCCOc1ccc(N2C(N)=NC(N)=NC23CCCCC3)cc1 | > 20 µM (inactive)
9 | Cc1ccc(NCC(=O)Nc2cccc(S(=O)(=O)N(C)C)c2)cc1S(=O)(=O)N1CCCCCC1 | > 20 µM (inactive)
10 | Cc1cc(C)c[n+](C(C)C(=O)c2ccc(-c3ccccc3)cc2)c1 (stereo not drawn) | > 20 µM (inactive)
11 | COC(=O)C1=C(c2cc3ccccc3o2)C[C@@H]2CC[C@H]1N2C(=O)N1CCC(C)CC1 | > 20 µM (inactive)
12 | c1ccc(C[n+]2cccc(-c3ccccc3)c2)cc1 | > 20 µM (inactive)
13 | CCCCN(C(C)=O)c1ccc2c(c1)C1CC2CCN1C(=O)OCc1ccccc1 (stereo not drawn) | 8.16 µM
14 | C=CCOc1nc2c(c(=O)n(C)c(=O)n2C)n1Cc1ccc(Cl)cc1 | > 20 µM (inactive)
15 | CC[N+]1=C(C)C(C)(C)c2cc(C)ccc21 | > 20 µM (inactive)
16 | Cc1ccc(C)c(N2CC(O)(c3cccs3)[N+]3=C2CCCC3)c1 (stereo not drawn) | > 20 µM (inactive)
17 | O=C(Nc1nc(-c2cccs2)cs1)c1cccc(S(=O)(=O)N2CCCCCC2)c1 | > 20 µM (inactive)
18 | CCc1ccc(CN(C)C(=O)c2cc(COc3cccc4cnccc34)on2)cc1 | > 20 µM (inactive)
19 | Cc1ccc(C2=C(CC(=O)O)C(=O)CC2)cc1 | > 20 µM (inactive)
20 | COc1ccc(NS(=O)(=O)c2ccc(N3CCCCC3)c(N)c2)cc1 | > 20 µM (inactive)
21 | c1ccc(-c2c[n+]3c(n2-c2ccccc2)SCC3)cc1 | > 20 µM (inactive)
22 | O=C(c1ccc(C(F)(F)F)cc1)C1CCCN(Cc2ccncc2)C1 (stereo not drawn) | 18.2 µM
23 | C=CCNC(=S)/N=c1/ccccn1Cc1ccccc1 | > 20 µM (inactive)
24 | O=C(c1ccc(Cl)cc1)N1CCN(c2ccnc3cc(Cl)ccc23)CC1 | > 20 µM (inactive)

Row | SMILES | IC50
25 | COc1cc2c(c(OC)c1OC)-c1ccc(N(C)CC(OC)OC)c(=O)cc1[C@@H](NC(C)=O)CC2 | 10.6 µM
26 | CCC(C)CCN1C(N(C)C)=NC[C@@H]1CC(C)C (stereo partly drawn) | > 20 µM (inactive)
27 | COc1ccccc1C(=O)NC(=S)/C=C1/N(C)c2ccccc2C1(C)C | > 20 µM (inactive)
28 | CC[N+](C)(CC)CCC(c1ccccc1)C1CCCCC1 (stereo not drawn) | > 20 µM (inactive)
29 | O=C(Cc1ccc(Cl)cc1Cl)Nc1ccncc1 | > 20 µM (inactive)
30 | O=C(c1cc2sccc2n1Cc1ccc(F)cc1)N1CCN(c2nc3ccccc3s2)CC1 | > 20 µM (inactive)
31 | O=C(Cn1cnc2ccccc21)Nc1cccc(S(=O)(=O)N2CCCC2)c1 | > 20 µM (inactive)
32 | CCCc1c(CC)c(=N)c2ccccc2n1C | > 20 µM (inactive)
33 | COc1ccc(NS(=O)(=O)c2cccc(NC(=O)c3ccc(S(=O)(=O)N4CCCCCC4)cc3)c2)cc1 | > 20 µM (inactive)
34 | COc1ccc(N2CCN(c3ncnc4c3[nH]c3ccccc34)CC2)cc1 | > 20 µM (inactive)
35 | CCCCCCCNC1=CC(=O)CC(c2ccccc2)C1 (stereo not drawn) | 16.5 µM
36 | O=C(Nc1ccccc1)C1=C[C@@H](C2CCCCC2)C[C@@H](OCCCCO)O1 | > 20 µM (inactive)
37 | Cc1nc2cc(N3CCN(C)CC3)c(NC(=O)Cc3ccccc3)cc2c(=O)n1Cc1ccccc1 | > 20 µM (inactive)
38 | CCOc1ccc(-n2c(O)c(/C=N/Nc3nc(C)cc(C)n3)c3ccccc3c2=O)cc1 | > 20 µM (inactive)
39 | CCC(C)NC(=O)CCC(=O)OC1O[C@H]2OC3(C)CC[C@H]4[C@H](C)CCC(C1C)C24OO3 (stereo partly drawn) | > 20 µM (inactive)
40 | COc1ccc(NS(=O)(=O)c2ccc(N3CCN(CCO)CC3)c([N+](=O)[O-])c2)cc1 | > 20 µM (inactive)
41 | C[N+]1=C(/C=C/Nc2ccccc2)C(C)(C)c2ccccc21 | > 20 µM (inactive)
42 | CC1CCN(c2c(NCc3ccc(C(=O)N4c5ccccc5CC4C)cc3)c(=O)c2=O)CC1 (stereo not drawn) | > 20 µM (inactive)
43 | CN(Cc1nccs1)C(=O)c1cc(COc2cccc3cnccc23)on1 | > 20 µM (inactive)
44 | FC(F)Oc1ccc(-n2cc(-c3ccccc3)[n+]3c2CCCCC3)cc1 | > 20 µM (inactive)
45 | COc1ccccc1NS(=O)(=O)c1cccc(C(=O)NC2CCN(Cc3ccccc3)CC2)c1 | > 20 µM (inactive)
46 | Cc1cc(N/N=C/c2ccc(O)cc2O)nc(-n2nc(C)cc2C)n1 | > 20 µM (inactive)
47 | Brc1ccc(-c2csc(N3CCCCCC3)n2)cc1 | > 20 µM (inactive)
48 | Clc1ccc(-n2cc(-c3ccc(Br)cc3)[n+]3c2CCCCC3)cc1 | > 20 µM (inactive)
